The experiment deals with sulfotransferase in hair follicles. Put plainly: In-vitro evaluation of sulfotransferase up-regulation in plucked hair follicles. The following applies: for OD 405 (1)-(3), individual replicates / OD 405 Average: 24 h incubation, patient AB-001; for induction of sulfotransferase activity in plucked hair follicles (conclusion): 24 h. It counts as cell-based, human. The method, then:
The following experiment was conducted to assess the up-regulation of sulfotransferase in hair follicles by candidate compounds know to interact with human nuclear receptors (e.g., PXR and CAR).
Method: For each compound tested, 24 hairs were plucked from a human subject. […] 1 uL of DMSO with no compound was added to control samples. Hairs were allowed to incubate with the candidate compounds for 24 h at room temperature. All samples were run in triplicate, i.e., the data describe in the result section is an average of three samples tested.
After 24 h of incubation hairs were removed from the sample media and washed briefly with clean water. Hairs were trimmed to a length of ˜1 cm and immersed, bulb first, in 100 μL of an assay solution containing 50 mM phosphate buffer (pH8), 5 mM potassium p-nitrophenyl sulfate, 20 μM adenosine 3′,5′-diphosphate, 100 μM minoxidil and 5 mM MgCl2. Hairs were allowed to react with the solution for 24 hours at room temperature. After incubation, hairs were removed and the optical absorbance of the solution at 405 nm was determined with a spectrophotometer using a single scan and 1 cm path length.

Where [1] appears, read: 0.2 uM, DMSO control average 0.195.
The mark [2] stands for this setting: 1 uM, DMSO control average 0.195.
Where [3] appears, read: 5 uM, DMSO control average 0.120 (Vitamin K2 run), 0.195 (Hyperforin run).
Where [4] appears, read: 10 uM, DMSO control average 0.120 (Vitamin K2 run), 0.241 (Genistein run).
Setting [5] is: 20 uM, DMSO control average 0.120.
The mark [6] stands for this setting: 25 uM, DMSO control average 0.241.
Setting [7] is: 50 uM, DMSO control average 0.241.

The text below walks through data of US12533309B2, “Minoxidil adjuvant therapies” (JUPITER WELLNESS, INC., priority 2018, dated 2026).

“And” between values parts separate entries of the source, which are not always exact repeats. Equal entries are not always repeated.

`CC(C)=CCC[C@]1(C)[C@@H](CC=C(C)C)C[C@@]2(CC=C(C)C)C(=O)[C@]1(C(=O)C(C)C)C(=O)C(CC=C(C)C)=C2O` [Hyperforin, hyperforin]: the “induction of sulfotransferase activity in plucked hair follicles (conclusion)” value (shortened to “induction of sulfotransferase activity”) is “induced sulfotransferase activity”. For the same molecule, under setting [1], the “OD 405 (1)-(3), individual replicates” value was 0.411 and 0.360 and 0.298; the “OD 405 Average” value was determined as 0.356. For the same molecule, under setting [2], the “OD 405 (1)-(3), individual replicates” value was 0.475 and 0.402 and 0.369; the “OD 405 Average” value stood at 0.415. Moreover, under setting [3], the “OD 405 (1)-(3), individual replicates” value was 0.523 and 0.506 and 0.489; the “OD 405 Average” value was determined as 0.506.
On to `CC(C)=CCC/C(C)=C/CC/C(C)=C/CC/C(C)=C/CC1=C(C)C(=O)c2ccccc2C1=O` [Vitamin K2, vitamin K2], for which the “induction of sulfotransferase activity” value is “induced sulfotransferase activity”. Also, under setting [3], the “OD 405 (1)-(3), individual replicates” value was 0.176 and 0.211 and 0.173; the “OD 405 Average” value is given as 0.187. In addition, under setting [4], the “OD 405 (1)-(3), individual replicates” value was 0.339 and 0.138 and 0.180; the “OD 405 Average” value is 0.219. For the same molecule, under setting [5], the “OD 405 (1)-(3), individual replicates” value is 0.145 and 0.208 and 0.144; the “OD 405 Average” value was 0.166.
With `O=c1c(-c2ccc(O)cc2)coc2cc(O)cc(O)c12` [Genistein, genistein], the “induction of sulfotransferase activity” value is “induced sulfotransferase activity”. For the same molecule, under setting [4], the “OD 405 (1)-(3), individual replicates” value was 0.186 and 0.235 and 0.134; the “OD 405 Average” value stood at 0.185. Under setting [6], the “OD 405 (1)-(3), individual replicates” value was 0.179 and 0.144 and 0.085; the “OD 405 Average” value worked out at 0.136. Also, under setting [7], the “OD 405 (1)-(3), individual replicates” value was 0.122 and 0.080 and 0.190; the “OD 405 Average” value is recorded as 0.131.
